The values that follow come from patent publication US20130150335A1, “PACLITAXEL/STEROIDAL COMPLEX” (Institute of Mataria Medica, Chinese Academy of Medical …, priority 2009, published 2013).

A short description of data set [1]: Solubility of paclitaxel/lipid complex in oil (soybean oil, MCO, mixed oil). Format: physicochemical. The settings on record: for solubility at 1 h: saturated solution. On the procedure: Take 4 g of paclitaxel, add cholesterol, 7-dehydrocholesterol and ergosterol respectively in accordance with the amount ratio as stated in Table 2 below, move to a rotary evaporator together, dissolve with 500 ml of acetone each, mix at 45° C. for 1 hour then remove the solvent by the rotary evaporation method, vacuum dry at 65° C. for 15 hours. Take a quantity of each complex formed, add 20 g of soybean oil for injection used, heat in water bath for 1 hour and shake, obtain saturated solutions.
Using acetone as the solvent, the molar ratio of paclitaxel to cholesterol being 1:1, the reaction temperature at 35° C., the reaction time being 0.5 h, the effect of the paclitaxel concentration (16.0, 8.0, 4.0, 2.0, 1.0 and 0.5 mg/ml) on the complex preparation was investigated.
Filter the solution, take a quantity of the successive filtrate, dilute with absolute ethanol, carry out an HPLC analysis, calculate the solubility of complex in oil; take a quantity of paclitaxel, repeat the procedure.

Data set [2] can be described thus: Solubility of paclitaxel cholesterol complex in n-octanol. Format: physicochemical. The settings on record: organic solvent or mixture, thermodynamic from solid, 25° C., saturated solution, read-out: drug solubility in n-octanol. On the procedure: Take 5 ml of the solution, filter by 0.45 μm of membrane, take an amount of the successive filtrate, dilute with absolute ethanol, carry out the ultraviolet spectrophotometry method, calculate the apparent solubility of the physical mixture and cholesterol in n-octanol, compared the results with paclitaxel.

In brackets after ≈: the same amount, converted by molar mass. Where two headings read alike, the source gives them in different places.

As for `CC(=O)O[C@H]1C(=O)[C@@]2(C)[C@H]([C@H](OC(=O)c3ccccc3)[C@]3(O)C[C@H](OC(=O)[C@H](O)[C@@H](NC(=O)c4ccccc4)c4ccccc4)C(C)=C1C3(C)C)[C@]1(OC(C)=O)CO[C@@H]1C[C@@H]2O` [Paclitaxel], in data set [1] (Table 4, soybean oil and MEDIUM CHAIN OIL (volume ratio of 1:1), 60° C.), the “drug solubility in vegetable oil: Mixed oil” value was found to be 1360 µg/mL. In addition, the solubility at 1 h in data set [1] (medium chain oil (MCO), oil or lipid, thermodynamic from solid, Table 4, MEDIUM CHAIN OIL, 60° C., read-out: drug solubility in vegetable oil: MCO) was 2370 µg/mL (≈ 2780 µM); in data set [1] (oil or lipid, thermodynamic from solid, Table 4, soybean oil for injection, 60° C., read-out: drug solubility in vegetable oil: Soybean oil), 270 µg/mL (≈ 316 µM); in data set [1] (soybean oil for injection, oil or lipid, thermodynamic from solid, Table 2, effect of paclitaxel/steroid amount ratio, HPLC, read-out: Solubility in soybean oil) it was 270 µg/mL. Further, the solubility in data set [1] (soybean oil, oil or lipid, thermodynamic from solid, Table 1, complexes per CN200810168213.X, calculated as paclitaxel) was 270 µg/mL (≈ 316 µM). Further, in data set [2], the solubility at 24 h amounted to 8860 µg/mL (≈ 10400 µM).

One may read the solubility as the concentration that dissolves in the medium under given conditions.
